# Source: patent publication US20190091173A1, “METHOD OF […] BETWEEN […]” (ZOGENIX INTERNATIONAL LIMITED, priority 2017, published 2019)
# What was measured:
# [1] = system: convulsive seizures in subjects with Dravet syndrome; experiment: Study 1 (ZX008-1501/ZX008-1502), Phase 3, randomized, double-blind, placebo-controlled; format: in vivo, human; details: 0.2 mg/kg/day, end of T+M Period, SD 140.46, p=0.735
# Experimental: The first 119 subjects to be randomized in both identical studies combined were analyzed and reported as Study 1 (FIG. 1), covered by a Statistical Analysis Plan (SAP).
# Primary and key secondary endpoints in the Study 1 SAP were pre-determined. All patients were treated twice per day over a period of 14 weeks using an oral syringe to administer the formulation. The treatment period included a two-week titration period and a 12-week maintenance period.
# The initial results of Study 1 are outlined below. The randomized, double blind, placebo controlled, Phase 3 study enrolled 119 patients across sites in the United States, Canada, Europe and Australia. The median age of patients was 8 years, the mean age of patients was 9 years (range, 2-18 years) (FIG. 2).
# Patients were titrated to their target dose over two weeks, and then remained at that fixed dose for 12 weeks. The mean baseline convulsive seizure frequency across the study groups was approximately 40 seizures per month. 110 (92%) patients completed the study (85% 0.8 mg/kg/day; 100% 0.2 mg/kg/day; 93% placebo). […]
# The mean number of convulsive seizure free days, defined as a day for which diary data are available and no convulsive seizures have been reported, was determined for each treatment group during the Baseline and T+M Periods. […]
# [2] = system: seizures in patients with Dravet syndrome; details: long-term fenfluramine treatment; cited from earlier work
structure (smiles),measurement,setting,value
"CCNC(C)Cc1cccc(C(F)(F)F)c1 (stereo not shown) [Fenfluramine, 3-trifluoromethyl-N-ethylamphetamine]",reduction from Baseline in non-convulsive seizures (all types) per 28 days,[1],9.7%
same,effect on types of seizures,[2],effectively reduced the incidence of all types of seizures
same,reduction in seizures,[2],75%
same,test subjects in seizure-free condition,[2],66.6%
